This is an account of results in US20150087619A1, “METHOD OF MITIGATING VIRUS ASSOCIATED END-ORGAN DAMAGE” (CHIMERIX, INC., priority 2012, published 2015).

Test [1] deals with BKV. Nature of the test: In vitro antiviral activity in cell culture. Type of test: cell-based.
Test [2] deals with AdV. The experiment in a line: In vitro antiviral activity in cell culture. The test is classed as cell-based.
For test [3], the system named is VZV. The experiment in a line: In vitro antiviral activity in cell culture. Conditions: for EC50: Human alphaherpesvirus 3, read-out: EC50s.
Test [4] deals with EBV. The experiment in a line: In vitro antiviral activity in cell culture. The test is classed as cell-based. The conditions noted are these: human gammaherpesvirus 4.
The test system of test [5] is HHV-6(B). The experiment in a line: In vitro antiviral activity in cell culture. The test is classed as cell-based.
For test [6], the system named is CMV. Nature of the test: In vitro antiviral activity in cell culture. Type of test: cell-based. Conditions: Human betaherpesvirus 5.
Test [7] relates to HSV-1. Nature of the test: In vitro antiviral activity in cell culture. The test is classed as cell-based. Conditions: HSV-1, cell culture; for EC50: Human alphaherpesvirus 1.
In test [8] the test system is BKV. Nature of the test: Study HDP-CDV-201: hematuria and BKV bladder events. The test is classed as in vivo, human. The method, then:
A multicenter, randomized, double-blind, placebo-controlled, dose-escalation study of safety, tolerability, and ability of HDP-CDV to prevent or control […], and EBV infection and associated disorders was conducted. During enrollment of patients in the study, urine samples of candidate patients were routinely screened for BKV. Plasma was collected from patients who tested positive for BKV viruria in urine, and AdV, EBV and BKV level in the plasma was evaluated.

For test [9], the system named is BKV. The experiment in a line: Study HDP-CDV-201: serum creatinine as marker of renal function.
The mark [10] stands for this setting: BK positive during treatment (1/93).
The mark [11] stands for this setting: BK positive during treatment, N=93.

SMILES strings stand for the structures.

Take `Nc1nc2c(ncn2COCCO)c(=O)[nH]1` [Acyclovir]: the EC50 is more than 200000 nM in test [1] and more than 100000 nM in test [2].

For `Nc1ccn(C[C@@H](CO)OCP(=O)(O)O)c(=O)n1` [Cidofovir], the EC50 was 500 nM in [3]; 115000 nM in test [1]; more than 108000 nM in test [4]; 5400 nM in test [5]; 400 nM in [6]; 1300 nM in test [2]. This compound gave an EC50 in test [7] of 5500 nM.

With `Nc1nc(O)c2ncn(COC(CO)CO)c2n1` [Ganciclovir], the EC50 in [3] is 1300 nM; in test [1], more than 200000 nM; in [4] it was 900 nM; in test [5], 5900 nM; in [6], 3800 nM; in [2] it was 4500 to 33000 nM. Further, the EC50 in [7] was determined as 7 nM.

As for `CCCCCCCCCCCCCCCCOCCCOP(=O)(O)CO[C@H](CO)Cn1ccc(N)nc1=O` [HDP-CDV], the “1 + HEME CONFIRMED; NEW ONSET” value in test [8] (BK negative throughout (4/78)) is on record as 5.1%; in test [8] (BK positive during treatment (4/93)), 4.3%. Moreover, the entries for the “>120 LAST; 1 + HEME NEW ONSET; CONFIRMED; >25% INC CREATININE” value in test [9] (BK negative throughout) and in [9] (setting [10]) were 1.3% and 1.1%, respectively. Besides, the “CR >120 LAST VALUE; 1 + HEME CONFIRMED NEW ONSET” value in test [9] (BK negative throughout (1/78)) is listed as 1.3%; in [9] (setting [10]), 1.1%. Also, the “>120; NEW; >25% INCREASE” value in test [9] (BK negative throughout (6/78)) stood at 7.7%; in [9] (BK positive during treatment (7/93)), 7.5%. Moreover, the figures for the “CREATININE >120 LAST VALUE AND NEW FROM BASELINE” value in [9] (BK negative throughout (6/78)) and in test [9] (BK positive during treatment (10/93)) were 7.7% and 10.8%, respectively. Besides, the “creatinine elevations >120 microM and =>25% increase over baseline” value in test [9] (BK negative throughout (7/78), placebo 7.4%) turned out to be 9.0%. In addition, the “CR >120 LAST VALUE” is 12.8% in test [9] (BK negative throughout (10/78)) and 15.1% in test [9] (BK positive during treatment (14/93)). The “creatinine elevations (>120 last and >25% increase from baseline) OR 1+ heme, confirmed, new onset” value in test [9] (BK negative throughout (11/78), placebo 11.1%) came out at 14.1%; in [9] (BK positive during treatment (11/93), placebo 37.5%), 11.8%. Also, the “# (of CR >120 at baseline) THAT INCREASED >25%” value is recorded as 1 in test [9] (BK negative throughout, N=78) and 0 in test [9] (setting [11]). Besides, the “# (of CR >120 at baseline) THAT INCREASED DURING TREATMENT” value in test [9] (BK negative throughout, N=78) amounted to 1; in [9] (setting [11]), 0. Besides, the “end of treatment creatinine elevations >120 microM and =>25% over baseline” value in [9] (BK positive during treatment (7/93), placebo 18.75%) is on record as 7.5%.

As for `CC(C)Nc1nc2cc(Cl)c(Cl)cc2n1[C@H]1O[C@@H](CO)[C@H](O)[C@@H]1O` [Maribavir], the EC50s result in test [3] (VZV, cell culture) is “No Activity”; in [7] it was “No Activity”. The EC50 was 630 nM in test [4] and 310 nM in [6].
